Source: patent US8883782B2, “Spiro-tetracyclic ring compounds as beta-secretase modulators and methods of use” (Amgen Inc., priority 2010, dated 2014)
Like-named read-outs stand apart in the source and are kept apart here.

Experiments:
[1] = target: Beta Secretase enzyme (BACE) (Homo sapiens, UniProt P56817); test: In vitro enzymatic BACE FRET (fluorescence resonance energy transfer) assay; type: biochemical; conditions: average IC50, enzyme assay; read-out: BACE 1 FRET assay
In short: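 Cleavage of a 50 nM fluorophore/quencher peptide FRET substrate by BACE for 1 h in 0.05 M acetate pH 4.2, 10% DMSO, 100 uM genapol. Reaction stopped with Tris to neutral pH before fluorescence reading.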

[2] = tested on: Aβ40 in conditioned medium of cells stably expressing Amyloid Precursor Protein (APP); test: In vitro BACE cell-based assay (Aβ40 in conditioned medium, sandwich ELISA); conditions: read-out: HEK cell assay
In short: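 Quantification relied on pAb40/6E10 sandwich ELISA with Europium fluorescence counts, and IC50 was fitted versus concentration.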

[3] = Homo sapiens, HEK293, average IC50
[4] = Homo sapiens, HEK293, average IC50, HEK cells

Beta Secretase enzyme (BACE), sequence (P56817 46-501, species assumed): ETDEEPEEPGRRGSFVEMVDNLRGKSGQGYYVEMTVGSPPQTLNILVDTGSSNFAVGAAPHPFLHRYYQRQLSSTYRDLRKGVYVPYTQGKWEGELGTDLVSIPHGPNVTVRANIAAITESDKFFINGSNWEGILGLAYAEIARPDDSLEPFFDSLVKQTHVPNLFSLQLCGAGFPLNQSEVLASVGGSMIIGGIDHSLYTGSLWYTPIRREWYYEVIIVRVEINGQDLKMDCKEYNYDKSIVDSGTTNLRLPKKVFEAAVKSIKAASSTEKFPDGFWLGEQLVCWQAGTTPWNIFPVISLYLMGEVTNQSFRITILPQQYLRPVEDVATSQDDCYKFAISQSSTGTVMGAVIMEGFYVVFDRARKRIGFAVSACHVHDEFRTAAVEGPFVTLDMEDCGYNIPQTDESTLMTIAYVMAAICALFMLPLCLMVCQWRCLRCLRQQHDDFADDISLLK

Compound	IC50 [1]	IC50 [2, 3]	IC50 [2, 4]	IC50 [2]	IC50 ([2]; average IC50)
NC1=N[C@@]2(CO1)c1cc(-c3cccc(Cl)c3F)ccc1Oc1ncc(C3=CCOCC3)cc12 [Example 170, (5S)-7-(3-chloro-2-fluorophenyl)-3-(3,6-dihydro-2H-pyran-4-yl)spiro[chromeno[2,3-b]pyridine-5,4′-[1,3]oxazol]-2′-amine]	1.5 nM	18.3 nM	–	–	–
CCC(C)CSc1cnc2c(c1)[C@]1(COC(N)=N1)c1cc(-c3cccnc3)ccc1O2 (stereo partly drawn) [Example 99, (4′S)-3-(2-methylbutylthio)-7-(pyridin-3-yl)-5′H-spiro[chromeno[2,3-b]pyridine-5,4′-oxazol]-2′-amine]	17.3 nM	302 nM	–	–	–
NC1=N[C@@]2(CO1)c1cc(-c3cccnc3F)ccc1Oc1ncc(N3CCC(F)(F)C3)cc12 [Example 479, (5S)-3-(3,3-difluoro-1-pyrrolidinyl)-7-(2-fluoro-3-pyridinyl)spiro[chromeno[2,3-b]pyridine-5,4′-[1,3]oxazol]-2′-amine]	1.1 nM	–	4.4 nM	–	–
NC1=N[C@]2(CO1)c1cc(Br)ccc1Oc1nc(F)ccc12 [Example 484, (5R)-7-bromo-2-fluorospiro[chromeno[2,3-b]pyridine-5,4′-[1,3]oxazol]-2′-amine]	24600 nM	–	10000 nM	–	–
CC1(COc2ccc3c(c2Br)[C@]2(COC(N)=N2)c2cc(-c4cccnc4)ccc2O3)COC1 [Example 517, (4S)-1′-bromo-2′-((3-methyl-3-oxetanyl)methoxy)-7′-(3-pyridinyl)spiro[1,3-oxazole-4,9′-xanthen]-2-amine]	8.4 nM	–	20.5 nM	–	–
Cc1cc(-c2cc(F)c3c(c2)[C@]2(COC(N)=N2)c2cc(OCC4(C)COC4)ccc2O3)cnc1F [Example 445, (4S)-4′-fluoro-2′-(6-fluoro-5-methyl-3-pyridinyl)-7′-((3-methyl-3-oxetanyl)methoxy)spiro[1,3-oxazole-4,9′-xanthen]-2-amine]	41.6 nM	–	188 nM	–	–
Cc1cc(-c2cc3c(c(F)n2)Oc2ccc(-c4cccnc4F)cc2[C@]32CSC(N)=N2)ccn1 (racemic) [Example 1032, (5R)-1-fluoro-7-(2-fluoro-3-pyridinyl)-3-(2-methyl-4-pyridinyl)spiro[chromeno[2,3-c]pyridine-5,4′-[1,3]thiazol]-2′-amine, (5S)-1-fluoro-7-(2-fluoro-3-pyridinyl)-3-(2-methyl-4-pyridinyl)spiro[chromeno[2,3-c]pyridine-5,4′-[1,3]thiazol]-2′-amine]	0.4 nM	–	–	3 nM	–
CC#Cc1cncc(-c2ccc3c(c2)[C@@]2(COC(N)=N2)c2cc(C#CC4(C)COC4)cnc2O3)c1 [Example 943, (5S)-3-((3-methyl-3-oxetanyl)ethynyl)-7-(5-(1-propyn-1-yl)-3-pyridinyl)spiro[chromeno[2,3-b]pyridine-5,4′-[1,3]oxazol]-2′-amine]	0.7 nM	–	1 nM	–	–
NC1=N[C@@]2(CO1)c1cc(-c3cccnc3)ccc1Oc1c2cc(-c2cccnc2)[nH]c1=O [Example 107, (S)-2′-amino-3,7-di(pyridin-3-yl)-5′H-spiro[chromeno[2,3-c]pyridine-5,4′-oxazol]-1(2H)-one]	7.7 nM	–	180 nM	–	–
CC#Cc1cncc(-c2ccc3c(c2)[C@@]2(COC(N)=N2)c2cc(-c4ccnc(C)c4)nc(F)c2O3)c1 [Example 740, (5S)-1-fluoro-3-(2-methyl-4-pyridinyl)-7-(5-(1-propyn-1-yl)-3-pyridinyl)spiro[chromeno[2,3-c]pyridine-5,4′-[1,3]oxazol]-2′-amine]	0.8 nM	8 nM	–	–	–
COc1nc(-c2ccnc(F)c2)cc2c1Oc1ccc(-c3cccnc3F)cc1[C@@]21COC(N)=N1 [Example 831, (5S)-7-(2-fluoro-3-pyridinyl)-3-(2-fluoro-4-pyridinyl)-1-methoxyspiro[chromeno[2,3-c]pyridine-5,4′-[1,3]oxazol]-2′-amine]	1.1 nM	70 nM	–	–	–
CC(C)CSc1cnc2c(c1)[C@]1(COC(N)=N1)c1cc(-c3cccnc3)ccc1O2 [Example 184, (5S)-3-((2-methylpropyl)sulfanyl)-7-(3-pyridinyl)spiro[chromeno[2,3-b]pyridine-5,4′-[1,3]oxazol]-2′-amine]	14.1 nM	294 nM	–	–	–
CC1(C)CCN(c2cnc3c(c2)[C@]2(COC(N)=N2)c2cc(-c4cccnc4F)ccc2O3)CC1 [Example 480, (5S)-3-(4,4-dimethyl-1-piperidinyl)-7-(2-fluoro-3-pyridinyl)spiro[chromeno[2,3-b]pyridine-5,4′-[1,3]oxazol]-2′-amine]	2.5 nM	–	9.4 nM	–	–
NC1=N[C@@]2(CO1)c1cc(-c3cccnc3)ccc1Oc1cnc(N3CC[C@@H](F)C3)cc12 [Example 411, (5S)-3-((3R)-3-fluoro-1-pyrrolidinyl)-7-(3-pyridinyl)spiro[chromeno[2,3-c]pyridine-5,4′-[1,3]oxazol]-2′-amine]	2.3 nM	–	4.5 nM	–	–
COc1ccncc1-c1ccc2c(c1)[C@@]1(COC(N)=N1)c1cc(Cl)ncc1O2 [Example 652, (5S)-3-chloro-7-(4-methoxy-3-pyridinyl)spiro[chromeno[2,3-c]pyridine-5,4′-[1,3]oxazol]-2′-amine]	1220 nM	–	2170 nM	–	–
CC1(C)CC(c2cc3c(cn2)Oc2ccc(-c4ccc(F)nc4)cc2[C@@]32COC(N)=N2)=CCO1 [Example 370, (5S)-3-(2,2-dimethyl-3,6-dihydro-2H-pyran-4-yl)-7-(6-fluoro-3-pyridinyl)spiro[chromeno[2,3-c]pyridine-5,4′-[1,3]oxazol]-2′-amine]	3.6 nM	23.7 nM	–	–	–
NC1=N[C@@]2(CS1)c1cc(-c3cccnc3F)ccc1Oc1cnc(N3CC[C@@H](F)C3)cc12 [Example 929, (5S)-7-(2-fluoro-3-pyridinyl)-3-((3R)-3-fluoro-1-pyrrolidinyl)spiro[chromeno[2,3-c]pyridine-5,4′-[1,3]thiazol]-2′-amine]	0.3 nM	–	3 nM	–	–
COc1ccc2c(c1)[C@@]1(COC(N)=N1)c1cc(SCc3ccccc3)cnc1O2 [Example 185, (5S)-3-(benzylsulfanyl)-7-methoxyspiro[chromeno[2,3-b]pyridine-5,4′-[1,3]oxazol]-2′-amine]	5060 nM	10000 nM	–	–	–
CC(C)(C#N)COc1cc2c(c(F)c1F)Oc1ccc(-c3cccnc3)cc1[C@]21COC(N)=N1 [Example 1008, 3-(((4R)-2-amino-3′,4′-difluoro-7′-(3-pyridinyl)spiro[1,3-oxazole-4,9′-xanthen]-2′-yl)oxy)-2,2-dimethylpropanenitrile]	17.9 nM	775 nM	–	–	–
N#Cc1cncc(-c2ccc3c(c2)[C@@]2(COC(N)=N2)c2cc(N4CCOCC4)cc(F)c2O3)c1 [Example 558, 5-((4S)-2-amino-5′-fluoro-7′-(4-morpholinyl)spiro[1,3-oxazole-4,9′-xanthen]-2′-yl)-3-pyridinecarbonitrile]	1.7 nM	–	5.7 nM	–	–
NC1=N[C@@]2(CO1)c1cc(-c3cncnc3)ccc1Oc1cnc(-c3ccnc(F)c3)cc12 [Example 539, (5S)-3-(2-fluoro-4-pyridinyl)-7-(5-pyrimidinyl)spiro[chromeno[2,3-c]pyridine-5,4′-[1,3]oxazol]-2′-amine]	1.7 nM	–	38.2 nM	–	–
(5R)-7-bromo-3-fluoro-1-methoxyspiro[chromeno[2,3-c]pyridine-5,4′-[1,3]oxazol]-2′-amine, (5S)-7-bromo-3-fluoro-1-methoxyspiro[chromeno[2,3-c]pyridine-5,4′-[1,3]oxazol]-2′-amine [Example 846]	1.4 nM	–	–	–	14 nM
NC1=N[C@@]2(CO1)c1cc(-c3cc(Cl)cnc3F)ccc1Oc1ncc(C3=CCOCC3)cc12 [Example 454, (5S)-7-(5-chloro-2-fluoro-3-pyridinyl)-3-(3,6-dihydro-2H-pyran-4-yl)spiro[chromeno[2,3-b]pyridine-5,4′-[1,3]oxazol]-2′-amine]	0.9 nM	–	3.2 nM	–	–
NC1=N[C@@]2(CO1)c1cc(-c3ccnc(F)c3)ccc1Oc1cnc(Cl)cc12 [Example 675, (5S)-3-chloro-7-(2-fluoro-4-pyridinyl)spiro[chromeno[2,3-c]pyridine-5,4′-[1,3]oxazol]-2′-amine]	2630 nM	–	415 nM	–	–
C[Si](C)(C)c1cc2c(nc1F)Oc1ccc(-c3cccnc3F)cc1[C@@]21COC(N)=N1 [Example 146, (5S)-2-fluoro-7-(2-fluoro-3-pyridinyl)-3-(trimethylsilyl)spiro[chromeno[2,3-b]pyridine-5,4′-[1,3]oxazol]-2′-amine]	12.3 nM	169 nM	–	–	–
Cc1ccnn1-c1cc(F)c2c(c1)[C@]1(COC(N)=N1)c1cc(-c3cncnc3)ccc1O2 [Example 636, (4S)-4′-fluoro-2′-(5-methyl-1H-pyrazol-1-yl)-7′-(5-pyrimidinyl)spiro[1,3-oxazole-4,9′-xanthen]-2-amine]	28.8 nM	–	273 nM	–	–
N#Cc1cc(-c2ccc3c(c2)[C@@]2(COC(N)=N2)c2cc(-c4ccnc(F)c4)cnc2O3)ccc1F [Example 786, 5-((5S)-2′-amino-3-(2-fluoro-4-pyridinyl)spiro[chromeno[2,3-b]pyridine-5,4′-[1,3]oxazol]-7-yl)-2-fluorobenzonitrile]	10.5 nM	41 nM	–	–	–
CC1(C#Cc2cc(F)c3c(c2)[C@]2(COC(N)=N2)c2cc(-c4cncc(F)c4)ccc2O3)COC1 [Example 599, (4S)-4′-fluoro-7′-(5-fluoro-3-pyridinyl)-2′-((3-methyl-3-oxetanyl)ethynyl)spiro[1,3-oxazole-4,9′-xanthen]-2-amine]	1.1 nM	–	11 nM	–	–
